Molecules are shown by their SMILES.

This assay addresses T1, hERG channel (Homo sapiens, UniProt Q12809).
T1 construct: gene KCNH2
The assay is described as follows: inhibition of hERG channel current (data not shown). The assay is classed as cell-based.

T1 sequence (Q12809 whole entry): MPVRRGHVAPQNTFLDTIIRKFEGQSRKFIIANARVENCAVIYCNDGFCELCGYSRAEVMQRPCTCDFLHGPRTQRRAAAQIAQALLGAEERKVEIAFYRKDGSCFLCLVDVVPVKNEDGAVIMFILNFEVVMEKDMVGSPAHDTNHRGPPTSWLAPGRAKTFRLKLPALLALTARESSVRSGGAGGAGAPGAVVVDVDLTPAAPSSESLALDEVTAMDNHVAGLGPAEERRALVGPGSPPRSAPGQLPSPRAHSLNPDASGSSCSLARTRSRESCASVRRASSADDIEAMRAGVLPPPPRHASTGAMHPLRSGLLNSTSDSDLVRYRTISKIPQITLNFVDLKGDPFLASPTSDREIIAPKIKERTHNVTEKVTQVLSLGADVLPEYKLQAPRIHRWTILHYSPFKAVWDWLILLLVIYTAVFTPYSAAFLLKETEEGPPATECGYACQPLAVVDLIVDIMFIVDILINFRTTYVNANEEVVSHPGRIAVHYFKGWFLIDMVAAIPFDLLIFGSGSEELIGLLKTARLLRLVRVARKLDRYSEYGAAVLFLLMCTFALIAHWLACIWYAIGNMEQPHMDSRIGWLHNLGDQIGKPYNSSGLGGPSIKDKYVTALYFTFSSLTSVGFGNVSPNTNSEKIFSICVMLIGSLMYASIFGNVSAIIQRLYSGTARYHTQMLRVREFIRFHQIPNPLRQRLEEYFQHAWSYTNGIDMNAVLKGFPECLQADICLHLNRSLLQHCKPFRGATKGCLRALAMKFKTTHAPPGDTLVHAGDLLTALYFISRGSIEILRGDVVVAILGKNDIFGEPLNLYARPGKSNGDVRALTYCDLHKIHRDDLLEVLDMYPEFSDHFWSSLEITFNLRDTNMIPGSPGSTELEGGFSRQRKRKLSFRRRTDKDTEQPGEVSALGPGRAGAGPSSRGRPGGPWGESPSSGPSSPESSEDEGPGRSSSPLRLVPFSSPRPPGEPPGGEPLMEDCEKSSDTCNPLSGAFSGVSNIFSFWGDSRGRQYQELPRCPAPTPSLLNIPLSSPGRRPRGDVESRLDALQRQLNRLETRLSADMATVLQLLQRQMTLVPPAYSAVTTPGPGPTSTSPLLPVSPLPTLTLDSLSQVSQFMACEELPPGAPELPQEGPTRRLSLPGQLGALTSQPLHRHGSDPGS

By IC50 is commonly meant the concentration that gives 50% inhibition. A high value points to lower potency. As to `COc1cc(-c2ccc(CN[C@H]3C[C@@H](O)[C@@H](N(C)c4ncnc5sc(CC(F)(F)F)cc45)C3)cc2)nnc1OC` [DS-1594a, (1R, 2S, 4R)-4-({[4-(5,6-dimethoxypyridazin-3-yl)phenyl]methyl}amino)-2-{methyl[6-(2,2,2-trifluoroethyl)thieno[2,3-d]pyrimidin-4-yl]amino}cyclopentan-1-ol], the IC50 was 300 nM.
